Data reported in article PMC11310081, “Deep-learning-enabled antibiotic discovery through molecular de-extinction” (Nature Biomedical Engineering, 2024).
≈ marks a conversion by molar mass, not a printed value. Peptide text beside a SMILES is read from it.

What was measured:
A. baumannii ATCC 19606 [1] = test: Neutropenic thigh infection mouse model; type: in vivo, CD-1 mice; settings: neutropenic CD-1 mice
Procedure: Six-week-old female CD-1 mice from Charles River (stock number 18679700-022) were rendered neutropenic by two doses of cyclophosphamide (150 mg kg^−1) applied intraperitoneally with an interval of 72 h. One day after the last dose of cyclophosphamide, the mice were injected intramuscularly in their right thigh with a bacterial load of 10^6 c.f.u. ml^−1 of A. baumannii ATCC 19606 cells. The bacteria had been grown in LB broth, washed twice with PBS (pH 7.4), and resuspended to the desired concentration. Two hours after bacterial injection, peptides resuspended in water were administered intraperitoneally, and the untreated mice were inoculated with the same volume of deionized water. Before each injection, mice were anaesthetized with isoflurane and monitored for respiratory rate and pedal reflexes. Next, we monitored the establishment of the infection and euthanized the mice. The infected area was excised 2 days and 4 days post infection, homogenized using a bead beater for 20 min (25 Hz), and then serially diluted tenfold for quantification of colony-forming units in MacConkey agar plates. The experiments were performed with six mice per group. All experiments were performed blindly, and no animal subjects were excluded from the analysis. The thigh infection mouse model was approved by the University Laboratory Animal Resources from the University of Pennsylvania (protocol 807055). Statistical significance was determined using one-way ANOVA followed by Dunnett’s test in log10-transformed data to mitigate the effect of outliers; P values are presented for each group, with all groups being compared to the untreated control group.

[2] = system: 11 clinically relevant bacterial pathogens; type: cell-based
Procedure, shortened: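 Antimicrobial activity is measured by broth microdilution against log-phase bacteria (OD600 0.3–0.5). Peptide range: 1 to 64 μmol l^−1.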

A. baumannii ATCC 19606 [3] = test: Skin abscess infection mouse model; type: in vivo, CD-1 mice; settings: for bacterial count, skin abscess (Panel 6b): CD-1 mice
Procedure: A. baumannii ATCC 19606 cells were grown in LB medium to an OD600 = 0.5. Cells were washed twice with sterile phosphate-buffered saline (PBS) (pH 7.4, 13,000 r.p.m. for 2 min) and resuspended to a final concentration of 10^6 (A. baumannii cells) colony-forming units per millilitre (c.f.u. ml^−1). Six-week-old female CD-1 mice from Charles River (stock number 18679700-022) were anaesthetized with isoflurane, and their backs were sterilized and shaved. A superficial linear skin abrasion was made with a needle to damage the stratum corneum and upper layer of the epidermis. An aliquot of 20 μl containing the bacterial load resuspended in PBS was inoculated over the scratched area. Two hours after the infection, peptides diluted in water at their MIC value were administered to the infected area, and the untreated mice were inoculated with the same volume of deionized water. Mice were euthanized, and the area of scarified skin was excised 2 days and 4 days post infection, homogenized using a bead beater for 20 min (25 Hz) and then serially diluted tenfold for quantification of colony-forming units. This quantitative method was used as it has been established to accurately reflect the number of bacteria present in a given infected area. MacConkey agar plates were used as A. baumannii colonies appear purple in this medium and can easily be distinguished from other strains. The experiments were performed with six mice per group. All experiments were performed blindly, and no animal subjects were excluded from the analysis. The skin abscess infection mouse model was approved by the University Laboratory Animal Resources from the University of Pennsylvania (protocol 806763). Statistical significance was determined using one-way analysis of variance (ANOVA) followed by Dunnett’s test in log10-transformed data to mitigate the effect of outliers; P values are presented for each group, with all groups being compared to the untreated control group.

[4] = A. baumannii ATCC 19606, day 2, replicate 1
[5] = A. baumannii ATCC 19606, day 2, replicate 2
[6] = A. baumannii ATCC 19606, day 2, replicate 3
[7] = A. baumannii ATCC 19606, day 2, replicate 4
[8] = A. baumannii ATCC 19606, day 2, replicate 5
[9] = A. baumannii ATCC 19606, day 2, replicate 6
[10] = A. baumannii ATCC 19606, day 4, replicate 1
[11] = A. baumannii ATCC 19606, day 4, replicate 2
[12] = A. baumannii ATCC 19606, day 4, replicate 3
[13] = A. baumannii ATCC 19606, day 4, replicate 4
[14] = A. baumannii ATCC 19606, day 4, replicate 5
[15] = A. baumannii ATCC 19606, day 4, replicate 6

- MIC (lowest MIC value in the antimicrobial activity assays) ([2]; Supplementary Table 17, lowest MIC among the strains tested): 32 µM (≈ 97.9 µg/mL)
Compound: CC[C@H](C)[C@H](NC(=O)[C@H](CO)NC(=O)[C@H](CCCNC(=N)N)NC(=O)[C@H](C)NC(=O)[C@H](Cc1c[nH]cn1)NC(=O)[C@H](CC(C)C)NC(=O)[C@H](CS)NC(=O)[C@H](C)NC(=O)[C@@H](N)CCCNC(=N)N)C(=O)N[C@@H](C)C(=O)N[C@@H](CCCNC(=N)N)C(=O)N[C@@H](CC(C)C)C(=O)N[C@@H](Cc1c[nH]cn1)C(=O)N[C@@H](CCCCN)C(=O)N[C@@H](CCCNC(=N)N)C(=O)N[C@@H](Cc1c[nH]c2ccccc12)C(=O)N[C@@H](CCCNC(=N)N)C(=O)N1CCC[C@H]1C(=O)N[C@H](C(=O)N[C@@H](Cc1c[nH]cn1)C(=O)N[C@@H](CCC(N)=O)C(=O)NCC(=O)N[C@@H](CC(C)C)C(=O)NCC(=O)N[C@@H](CC(C)C)C(=O)N[C@@H](CCCCN)C(=O)O)C(C)C [Mammuthusin-2] (H-RACLHARSIARLHKRWRPVHQGLGLK-OH; N-terminus and C-terminus assumed)
- bacterial count, thigh infection (Panel 6d) (A. baumannii ATCC 19606 [1]; [4]): 800000
- bacterial count, thigh infection (Panel 6d) (A. baumannii ATCC 19606 [1]; [5]): 2e+007
- bacterial count, thigh infection (Panel 6d) (A. baumannii ATCC 19606 [1]; [6]): 4000000
- bacterial count, thigh infection (Panel 6d) (A. baumannii ATCC 19606 [1]; [7]): 2000000
- bacterial count, thigh infection (Panel 6d) (A. baumannii ATCC 19606 [1]; [8]): 1e+007
- bacterial count, thigh infection (Panel 6d) (A. baumannii ATCC 19606 [1]; [9]): 4000000
- bacterial count, thigh infection (Panel 6d) (A. baumannii ATCC 19606 [1]; [10]): 800000
- bacterial count, thigh infection (Panel 6d) (A. baumannii ATCC 19606 [1]; [11]): 600000
- bacterial count, thigh infection (Panel 6d) (A. baumannii ATCC 19606 [1]; [12]): 6000000
- bacterial count, thigh infection (Panel 6d) (A. baumannii ATCC 19606 [1]; [13]): 6000000
- bacterial count, thigh infection (Panel 6d) (A. baumannii ATCC 19606 [1]; [14]): 2000000
- bacterial count, thigh infection (Panel 6d) (A. baumannii ATCC 19606 [1]; [15]): 4000000
- Active or Inactive ([2]; Supplementary Dataset 2, against the 11 pathogens tested): Active
- bacterial count, skin abscess (Panel 6b) (A. baumannii ATCC 19606 [3]; [4]): 600000
- bacterial count, skin abscess (Panel 6b) (A. baumannii ATCC 19606 [3]; [5]): 400000
- bacterial count, skin abscess (Panel 6b) (A. baumannii ATCC 19606 [3]; [6]): 800000
- bacterial count, skin abscess (Panel 6b) (A. baumannii ATCC 19606 [3]; [7]): 200000
- bacterial count, skin abscess (Panel 6b) (A. baumannii ATCC 19606 [3]; [8]): 4000000
- bacterial count, skin abscess (Panel 6b) (A. baumannii ATCC 19606 [3]; [9]): 1e+007
- bacterial count, skin abscess (Panel 6b) (A. baumannii ATCC 19606 [3]; [10]): 200000
- bacterial count, skin abscess (Panel 6b) (A. baumannii ATCC 19606 [3]; [11]): 200000
- bacterial count, skin abscess (Panel 6b) (A. baumannii ATCC 19606 [3]; [12]): 800000
- bacterial count, skin abscess (Panel 6b) (A. baumannii ATCC 19606 [3]; [13]): 1200000
- bacterial count, skin abscess (Panel 6b) (A. baumannii ATCC 19606 [3]; [14]): 20000
- bacterial count, skin abscess (Panel 6b) (A. baumannii ATCC 19606 [3]; [15]): 20000
- Anti-infective activity in skin abscess model, in words (A. baumannii ATCC 19606 [3]; single dose at MIC, compared with untreated control and polymyxin B, n = 6): inhibited the proliferation of the infection for up to 4 days after treatment
